This assay has as its target cathepsin B (Homo sapiens, UniProt P07858). Briefly: microscale thermophoresis with CTSB-WT-EGFP in HCT-116 cell lysate. It counts as binding.

The term Kd denotes the free concentration of one partner at which half of the binding sites on the other are occupied at equilibrium, for simple one-to-one binding. The low end stands for a tighter complex, the high end for a looser complex. For the molecule `CC(C)(O)[C@@H]1CC[C@](C)([C@H]2[C@@H](O)C[C@@]3(C)[C@@H]4C[C@H](O)[C@H]5C(C)(C)[C@@H](O)CC[C@@]56C[C@@]46CC[C@]23C)O1` [CAG, Cycloastragenol], the Kd was 26.6 nM. That is a double-digit nanomolar value.

Values taken from paper PMC9621195 (Journal for Immunotherapy of Cancer, 2022).
